Assay results taken from the Kinase Knowledgebase extract (Sharma et al. 2016).

Molecular target: MAPK14;MAPK11;MAPK12;MAPK13 (human) (UniProt Q16539)
Assay: Assessment of MAPK11/MAPK12/MAPK13/MAPK14 Kinase Activity

SMILES	IC50 [nM]
Cc1ccc(C(=O)Nc2ccon2)cc1-c1ccn2c(-c3c(F)cccc3F)nnc2c1	< 25
Cc1ccc(C(=O)NC2CC2)cc1-c1ccn2c(-c3ccccc3C)nnc2c1	< 25
Cc1ccc(C(=O)Nc2ccnn2C)cc1-c1ccn2c(-c3ccc(F)cc3Cl)nnc2c1	< 25
Cc1ccc(C(=O)NC2CC2)cc1-c1cc(C)n2c(-c3ccccc3Cl)nnc2c1	< 25
Cc1ccc(C(=O)NC2CC2)cc1-c1ccn2c(-c3ccccc3C(F)(F)F)nnc2c1	< 25
Cc1ccc(C(=O)NC2CC2)cc1-c1ccn2c(-c3ccccc3F)nnc2c1	< 25
Cc1ccc(C(=O)NC2CC2)cc1-c1ccn2c(-c3ccccc3Cl)nnc2c1	< 25
Cc1ccc(C(=O)Nc2ccnn2C)cc1-c1ccn2c(C(C)C)nnc2c1	< 25
COc1ccccc1-c1nnc2cc(-c3cc(C(=O)NC4CC4)ccc3C)ccn12	< 25
Cc1ccc(C(N)=O)cc1-c1ccn2c(-c3ccccc3Cl)nnc2c1	< 25
Cc1ccc(C(=O)Nc2ccnn2C)cc1-c1ccn2c(C3(C(F)(F)F)CC3)nnc2c1	< 25
Cc1ccc(C(=O)NC2CC2)cc1-c1ccn2c(CC(C)(C)C)nnc2c1	< 25
Cc1ccc(C(=O)NC2CC2)cc1-c1ccn2c(-c3c(C)cccc3Cl)nnc2c1	< 25
Cc1ccc(C(=O)NC2CC2)cc1-c1ccn2c(NC(C)C)nnc2c1	< 25
Cc1c(F)cc(C(=O)NC2CC2)cc1-c1ccn2c(-c3ccncc3Cl)nnc2c1	< 25
Cc1ccc(C(=O)NC2CC2)cc1-c1ccn2c(-c3ccc(F)cc3C)nnc2c1	< 25
Cc1ccc(C(=O)Nc2ccnn2C)cc1-c1ccn2c(-c3sccc3C)nnc2c1	< 25
Cc1ccc(C(=O)NC2CC2)cc1-c1ccn2c(-c3cccc(F)c3Cl)nnc2c1	< 25
Cc1ncoc1-c1nnc2cc(-c3cc(C(=O)NC4CC4)cc(F)c3C)ccn12	< 25

SMILES	IC50 [nM]
Cc1ccc(C(=O)NC2CC2)cc1-c1ccn2c(N(C)c3ccccc3)nnc2c1	< 25
Cc1ccc(C(=O)NC2(C)CC2)cc1-c1ccn2c(-c3ccccc3Cl)nnc2c1	< 25
Cc1ccc(C(=O)NC2CC2)cc1-c1ccn2c(N3CCCC3)nnc2c1	< 25
Cc1ccccc1-c1nnc2cc(-c3cc(C(=O)NC4CC4)cc(F)c3C)ccn12	< 25
Cc1ccc(C(=O)Nc2ccnn2C)cc1-c1ccn2c(-c3ccccc3F)nnc2c1	< 25
Cc1ccc(C(=O)NC2CC2)cc1-c1ccn2c(Nc3ccccc3)nnc2c1	< 25
Cc1ccc(C(=O)NC2CC2)cc1-c1ccn2c(-c3ccncc3Cl)nnc2c1	< 25
Cc1ccc(C(=O)Nc2ccnn2C)cc1-c1ccn2c(-c3cc(F)ccc3Cl)nnc2c1	< 25
Cc1c(F)cc(C(=O)NC2CC2)cc1-c1ccn2c(-c3ccccc3C(F)(F)F)nnc2c1	< 25
CCNC(=O)c1ccc(C)c(-c2ccn3c(-c4ccccc4Cl)nnc3c2)c1	< 25
CCc1ccccc1-c1nnc2cc(-c3cc(C(=O)NC4CC4)ccc3C)ccn12	< 25
Cc1ccc(C(=O)Nc2ccnn2C)cc1-c1ccn2c(-c3ccccc3Cl)ncc2c1	< 25
Cc1ccc(C(=O)NC2CC2)cc1-c1ccn2c(C3CCCCC3)nnc2c1	< 25
Cc1ccc(C(=O)Nc2ccnn2C)cc1-c1ccn2c(-c3cc(F)cc(F)c3)ncc2c1	< 25
Cc1ccc(C(=O)NC2CC2)cc1-c1ccn2c(-c3cc(F)c(F)cc3Cl)nnc2c1	< 25
Cc1ccc(C(=O)Nc2ccnn2C)cc1-c1ccn2c(-c3cnccc3C(F)(F)F)ncc2c1	< 25
Cc1cccc(F)c1-c1nnc2cc(-c3cc(C(=O)NC4CC4)cc(F)c3C)ccn12	< 25
Cc1ccc(C(=O)Nc2ccnn2C)cc1-c1ccn2c(-c3ccc(F)cc3C)nnc2c1	< 25
Cc1ccc(C(=O)NC2CC2)cc1-c1ccn2c(N3CCCCC3)nnc2c1	< 25

More lines, now with the values ahead:

IC50 [nM]	SMILES
< 25	Cc1ccc(C(=O)NC2CC2)cc1-c1ccn2c(-c3cc(F)ccc3Cl)nnc2c1
< 25	Cc1ccc(C(=O)NC2CC2)cc1-c1ccn2c(-c3c(F)cccc3C(F)(F)F)nnc2c1
< 25	Cc1ccc(C(=O)Nc2ccnn2C)cc1-c1cc2nnc(-c3ccccc3Cl)n2cc1C
< 25	Cc1ccc(C(=O)NC2CC2)cc1-c1ccn2c(-c3sccc3Cl)nnc2c1
< 25	Cc1ccc(C(=O)NC2CC2)cc1-c1ccn2c(-c3c(Cl)cccc3Cl)nnc2c1
< 25	Cc1ccc(C(=O)NC2CC2)cc1-c1ccn2c(C(C)(C)C)nnc2c1
< 25	Cc1ccc(C(=O)NC2CC2)cc1-c1ccn2c(C3CCCC3)nnc2c1
< 25	Cc1ccc(C(=O)Nc2ccnn2C)cc1-c1ccn2c(-c3cccc(F)c3Cl)nnc2c1
< 25	Cc1ccc(C(=O)NC2CC2)cc1-c1ccn2c(-c3c(C)cccc3F)nnc2c1
< 25	Cc1c(F)cc(C(=O)NC2CC2)cc1-c1ccn2c(-c3c(F)cccc3F)nnc2c1
< 25	Cc1ccc(C(=O)NC2CC2)cc1-c1ccn2c(-c3ccccc3)nnc2c1
< 25	Cc1ccc(C(=O)NC2CC2)cc1-c1ccn2c(-c3ccc(S(C)(=O)=O)cc3Cl)nnc2c1
< 25	Cc1cc(F)c(C(=O)NC2CC2)cc1-c1ccn2c(-c3ccccc3Cl)nnc2c1
< 25	Cc1ccc(C(=O)NC2CC2)cc1-c1ccn2c(C(C)C)nnc2c1
< 25	Cc1ccc(C(=O)Nc2ccnn2C)cc1-c1ccn2c(-c3ccccc3Cl)nnc2c1
< 25	Cc1ccc(C(=O)Nc2ccnn2C)cc1-c1ccn2c(-c3cc(F)c(F)cc3Cl)nnc2c1
< 25	Cc1ccc(C(=O)NC2CC2)cc1-c1ccn2c(-c3sccc3C)nnc2c1

IC50 [nM]	SMILES
< 25	Cc1ccc(C(=O)NC2CC2)cc1-c1ccn2c(C3(C(F)(F)F)CC3)nnc2c1
< 25	Cc1ccc(C(=O)NC2CC2)cc1-c1ccn2c(-c3c(F)cccc3Cl)nnc2c1
< 25	Cc1ccc(C(=O)Nc2ccnn2C)cc1-c1ccn2c(-c3ccc(F)cc3C)ncc2c1
< 25	Cc1ccc(C(=O)NC2CC2)cc1-c1ccn2c(Cc3ccccc3)nnc2c1
< 25	Cc1c(F)cc(C(=O)Nc2ccon2)cc1-c1ccn2c(-c3c(F)cccc3F)nnc2c1
< 25	Cc1c(F)cc(C(=O)NC2CC2)cc1-c1ccn2c(-c3ccccc3Cl)nnc2c1
< 25	Cc1cccc(Cl)c1-c1nnc2cc(-c3cc(C(=O)NC4CC4)cc(F)c3C)ccn12
< 25	Cc1c(F)cc(C(=O)NC2CC2)cc1-c1ccn2c(-c3c(Cl)cccc3Cl)nnc2c1
< 25	Cc1ccc(C(=O)NC2CC2)cc1-c1ccn2c(-c3ccc(F)cc3Cl)nnc2c1
< 25	Cc1ccc(C(=O)NC2CC2)cc1-c1ccn2c(C3CC3)nnc2c1
< 25	Cc1c(F)cc(C(=O)NC2CC2)cc1-c1ccn2c(C(C)(C)C)nnc2c1
< 25	Cc1ccc(C(=O)NC2CC2)cc1-c1ccn2c(C3CCOCC3)nnc2c1
< 25	Cc1ccc(C(=O)NC2CC2)cc1-c1ccn2c(-c3ccc(F)cc3C)ncc2c1
< 25	Cc1ccc(C(=O)NC2CC2)cc1-c1cc2nnc(-c3ccccc3Cl)n2cc1C
< 25	Cc1ccc(C(=O)NC2CC2)cc1-c1ccn2c(C34C[C@H]5C[C@@H](C3)C[C@@H](C4)C5)nnc2c1
< 25	Cc1c(F)cc(C(=O)NC2CC2)cc1-c1ccn2c(-c3c(F)cccc3Cl)nnc2c1
